Results as given in ChEMBL document CHEMBL2413030, “Multimerized CHR-derived peptides as HIV-1 fusion inhibitors” (Bioorg Med Chem, 2013).
pIC50: −log10 of the molar value. Square brackets hold non-standard residues; d marks the D form. Nle = CCCC[C@H](N)C(=O)O

How the values were obtained:
[1] = Cytotoxicity against human TZM-bl cells by MTS assay; type: cell-based
[2] = tested on: Human immunodeficiency virus 1; assay: Antiviral activity against HIV1 NL4-3 assessed as inhibition of viral fusion with human TZM-bl cells after 48 hrs by steady glo luciferase reporter gene assay; type: functional, organism-based; conditions: Human immunodeficiency virus 1, NL4-3, TZM-bl

Row | Substance | CC50 [1] [nM] | pIC50 [2]
1 | H-W[Nle]EWDRKIEEYTKKIEELIKKSQEQQEKNEKELKREREREG-OH | > 5000 | 8.74
2 | enfuvirtide | > 5000 | 7.34
